How the values were obtained:
[1] = Frontal chromatography retention on poly(bis-SorbPC)-coated silica; assay type: physicochemical; settings: PBS pH 7.4, 1 μL min^−1, 100 μM sample
Procedure: (§1) Particles were packed in capillaries (50 μm or 75 μ[…].; Polymicro Technologies, Phoenix, Ariz.) against Microtight filter assemblies (Upchurch Scientific, Oak Harbor, Wash.). […] Frontal chromatography was performed using a lab-built instrument. Isocratic elution with PBS, pH 7.4, as the mobile phase utilized pressure driven flow that was applied by a Micropro Syringe Pumping System (Eldex, Napa, Calif.) connected to a […] injection valve (Valco, Houston, Tex.) with a 600 nL sample loop. […] The elution profile was monitored by ultraviolet absorbance detection (Model 500 Detector, ChromTech, Apple Valley, Minn.) at 220 nm. Signal from the detector was collected with an A/D converter (NI USB-6221, National Instruments, Austin, Tex.) and software written in LabVIEW (National Instruments). […] Statistical significance was determined using the two-tailed Student's t-test.

[2] = Frontal chromatography retention on bare silica; assay type: physicochemical; settings: PBS pH 7.4, 1 μL min^−1, 100 μM sample
Procedure: as §1

[3] = TIRFM measurement of Alexa 488-CTB binding to GM1 in polymerized bis-SorbPC PSLB; settings: 1 mol % GM1; 1 h static incubation
Procedure: Phosphate buffered saline (PBS) was used to measure the background. Alexa 488-CTB solutions (500 μL) were then injected into the flow cell, sequentially from the lowest concentration to the highest. One hour of static incubation after each injection, the fluorescent signal from GM1-bound Alexa 488-CTB was then measured. The fluorescent signal from dissolved Alexa 488-CTB was negligible so the dissolved protein solution was not flushed from the cell before each measurement. The solid line is a fit of the data to the Hill equation.
CTB labeled with Alexa Fluor 488 (Alexa 488-CTB) was purchased from Invitrogen (Eugene, Oreg.). Total internal reflection fluorescence microscopy (TIRFM) was used to measure the binding of Alexa 488-CTB to 1 mol % GM1 in a polymerized bis-SorbPC PSLB. The TIRFM system has been described previously. The 488 nm line of an Ar^+ laser (Ion Laser Technology) was coupled into a fused silica slide using a 45° prism (Edmund Optics). […] One of the internal reflections at the upper surface of the slide was used to excite fluorescence from Alexa 488-CTB bound to the PSLB. The fluorescence signal was collected using a 4× objective, directed through a 535DF35 (Omega Optical, Brattleboro, Vt.) band pass filter, and detected using CCD (Andor Technology USA, South Windsor, Conn.).

Row | Compound | Retention time [1] [min] | Retention time [2] [min] | dissolved concentration that saturates the PSLB [3]
1 | O=C(O)c1ccccc1 [Benzoic acid] | 14.1 ± 0.1 | 9.6 ± 0.2 | 
2 | CC(=O)Oc1ccccc1C(=O)O [Acetylsalicylic acid] | 14.6 ± 0.6 | 10.1 ± 0.2 | 
3 | O=C(O)c1ccccc1O [Salicylic acid] | 14.3 ± 0.1 | 9.7 ± 0.1 | 
4 | Alexa 488-CTB: CTB labeled with Alexa Fluor 488 |  |  | approximately 0.1 μM

— patent US10576456B2, “Systems and methods of preparing stabilized lipid assemblies” (ARIZONA BOARD OF REGENTS ON BEHALF OF THE UNIVERSITY OF …, priority 2014, dated 2020)
